Measurements as given in patent US20040122048A1, “Stabilized pharmaceutical composition containing basic excipients” (Wyeth Holdings Corporation, priority 2002, published 2004).

Legend:
[1] = pH of excipient solutions and of crushed EKB-569 tablet slurries; type: physicochemical; conditions: for pH at 0.1% excipient, Excipient Solution: 0.1% solution/suspension of basic excipient; for pH at 0.5% excipient, Excipient Solution: 0.5% solution/suspension of basic excipient; for pH at 1% excipient, Excipient Solution: 1% solution/suspension of basic excipient; for pH at 5% excipient, Excipient Solution: 5% solution/suspension of basic excipient
Text: The data in Table 3 supported testing improved stability of a pharmaceutical composition by lowering the pH of the pharmaceutical composition. […]

[2] = Stability of EKB-569 solution (degradation rate constant in buffers); type: physicochemical; conditions: for EKB-569 degradation rate constant: 0.2 mg/mL in 0.02 M buffer with 50% Acetonitrile
[3] = Solid state stability for EKB-569 drug substance at 56° C./75% RH; type: physicochemical; conditions: for % EKB-569 remaining / Total impurities: drug substance, 56° C./75% RH
Experimental: A study was conducted at 56° C./75% RH for 2 weeks. The samples were filled into 2-ml flame sealed Kimble score-break ampules.

[4] = Experimental: Compositions of tablets containing 0.5% and 0.1% of these excipients remain the same. Quantity of microcrystalline cellulose was adjusted to allow for the changes in the amounts of basic excipients. Tablets were manufactured using granulation.
Tablets were stored at 40° C./75% RH for 1 month.

Row | SMILES | pH at 0.1% excipient, Excipient Solution [1] | pH at 0.5% excipient, Excipient Solution [1] | pH at 1% excipient, Excipient Solution [1] | pH at 5% excipient, Excipient Solution [1] | also measured
1 | N=C(N)NCCC[C@H](N)C(=O)O [Arginine] | 10.18 | 10.57 | 10.91 | 11.23 | –
2 | O=C([O-])[O-].[Ca+2] [Calcium carbonate] | 8.95 | 8.93 | 9.02 | 9.12 | –
3 | O=C([O-])CN(CCN(CC(=O)[O-])CC(=O)[O-])CC(=O)[O-].[Na+].[Na+].[Na+].[Na+] [EDTA, tetra sodium] | 10.55 | 10.84 | 10.94 | 10.75 | –
4 | CCOc1cc2ncc(C#N)c(Nc3ccc(F)c(Cl)c3)c2cc1NC(=O)C=CCN(C)C [EKB-569, 4-dimethylamino-but-2-enoic acid [4-(3-chloro-4-fluoro-phenylamino)-3-cyano-7-ethoxy-quinolin-6-yl]-amide] | – | – | – | – | EKB-569 degradation rate constant ([2]; pH 1.2 (HCl), 80° C.): 0.0013 h⁻¹; EKB-569 degradation rate constant ([2]; pH 3.0 (Phoshphate), 80° C.): 0.0003 h⁻¹; EKB-569 degradation rate constant ([2]; pH 5.0 (Acetate), 56° C.): 0.0008 h⁻¹; EKB-569 degradation rate constant ([2]; pH 5.0 (Acetate), 80° C.): 0.0113 h⁻¹; EKB-569 degradation rate constant ([2]; pH 7.4 (Phosphate), 56° C.): 0.003 h⁻¹; EKB-569 degradation rate constant ([2]; pH 7.4 (Phosphate), 80° C.): 0.0235 h⁻¹; EKB-569 degradation rate constant ([2]; pH 9 (Glycine), 56° C.): 0.0031 h⁻¹; EKB-569 degradation rate constant ([2]; pH 9 (Glycine), 80° C.): 0.0229 h⁻¹; stability in solution as a function of pH ([2]; pH range 1.2-9, 56° C. and 80° C.): more stable in acidic solution; stability in the solid state ([3]; 56° C./75% RH for 2 weeks): chemical instability in the solid state; % EKB-569 remaining ([3]; 3 Days): 98.1%; Total impurities ([3]; 3 Days): 1.1%; % EKB-569 remaining ([3]; 7 Days): 97.7%; Total impurities ([3]; 7 Days): 1.68%; % EKB-569 remaining ([3]; 14 Days): 97.1%; Total impurities ([3]; 14 Days): 2.62%; % EKB-569 remaining ([3]; Initial): 99.1%; Total impurities ([3]; Initial): 0.78%
5 | O=C([O-])O.[Na+] [Sodium bicarbonate] | 8.69 | 8.56 | 8.34 | 8.18 | –
6 | O=C([O-])[O-].[Na+].[Na+] [Sodium carbonate] | 10.99 | 11.21 | 11.31 | 11.5 | –
7 | NC(CO)(CO)CO [Tromethamine] | 9.98 | 9.99 | 10.51 | 10.87 | –
8 | OC[C@H]1O[C@@H](O[C@H]2[C@H](O)[C@@H](O)C(O)O[C@@H]2CO)[C@H](O)[C@@H](O)[C@H]1O (stereo partly shown) [lactose] | – | – | – | – | effect on stability of EKB-569 pharmaceutical composition [4]: no effect on stability
